Measured values: ChEMBL document CHEMBL5506020 (J Med Chem, 2024)
Active and inactive are the calls of the source. The calls are words filed in the database; no cut-off is given here.

What was measured:
MV4-11 [1] = assay: Antiproliferative activity against human MV4-11 cells incubated for 120 hrs by Cell-Titer Glo assay; conditions: MV4-11, 120 h
MOLM-13 [2] = assay: Antiproliferative activity against human MOLM-13 cells incubated for 72 hrs by Cell-Titer Glo assay; conditions: MOLM-13, 72 h
[3] = Antiproliferative activity against human MOLM16 cells incubated for 72 hrs by Cell-Titer Glo assay; conditions: MOLM16, 72 h
THP-1 = assay: Antiproliferative activity against human THP-1 cells upto 10 uM; assay type: functional, cell-based
EOL1 = assay: Antiproliferative activity against human EOL1 cells upto 10 uM; assay type: functional, cell-based
KG-1 = assay: Antiproliferative activity against human KG-1 cells upto 10 uM; assay type: functional, cell-based
MV4-11 [4] = assay: Downregulation of c-Myc protein level in human MV4-11 cells at 50 nM incubated for 24 hrs by Western blotting analysis; assay type: functional, cell-based
MOLM-16 = assay: Downregulation of c-Myc protein level in human MOLM16 cells at 50 nM incubated for 24 hrs by Western blotting analysis; assay type: functional, cell-based
MOLM-13 [5] = assay: Downregulation of c-Myc protein level in human MOLM-13 cells at 50 nM incubated for 24 hrs by Western blotting analysis; assay type: functional, cell-based
MV4-11 [6] = assay: Downregulation of BRD2 protein level in human MV4-11 cells at 10 nM incubated for 6 hrs by proteomic analysis; assay type: functional, cell-based
MV4-11 [7] = assay: Downregulation of BRD3 protein level in human MV4-11 cells at 10 nM incubated for 6 hrs by proteomic analysis; assay type: functional, cell-based
MV4-11 [8] = assay: Downregulation of BRD4 protein level in human MV4-11 cells at 10 nM incubated for 6 hrs by proteomic analysis; assay type: functional, cell-based
MV4-11 [9] = assay: Downregulation of SMARCA4 protein level in human MV4-11 cells at 10 nM incubated for 6 hrs by proteomic analysis; assay type: functional, cell-based
MV4-11 [10] = assay: Downregulation of TRIM24 protein level in human MV4-11 cells at 10 nM incubated for 6 hrs by proteomic analysis; assay type: functional, cell-based
MV4-11 [11] = assay: Downregulation of IKZF1 level in human MV4-11 cells at 10 uM incubated for 6 hrs by Western blotting analysis; assay type: functional, cell-based
MV4-11 [12] = assay: Downregulation of ZFP91 protein level in human MV4-11 cells at 10 nM incubated for 6 hrs by proteomic analysis; assay type: functional, cell-based
MV4-11 [13] = assay: Downregulation of GSPT1 protein level in human MV4-11 cells at 10 nM incubated for 6 hrs by proteomic analysis; assay type: functional, cell-based
MV4-11 [14] = assay: Downregulation of IKZF1 mRNA level in human MV4-11 cells at 100 nM incubated for 6 hrs by qRT-PCR analysis; assay type: functional, cell-based
MV4-11 [15] = assay: Downregulation of CBP mRNA level in human MV4-11 cells at 100 nM incubated for 6 hrs by qRT-PCR analysis; assay type: functional, cell-based
MV4-11 [16] = assay: Downregulation of p300 mRNA level in human MV4-11 cells at 100 nM incubated for 6 hrs by qRT-PCR analysis; assay type: functional, cell-based
MV4-11 [17] = assay: Downregulation of TP53RK protein in human MV4-11 cells at 10 nM incubated for 6 hrs by proteomic analysis; assay type: functional, cell-based
MV4-11 [18] = assay: Downregulation of STAT1 protein in human MV4-11 cells at 10 nM incubated for 6 hrs by proteomic analysis; assay type: functional, cell-based
MV4-11 [19] = assay: Downregulation of STAT2 protein in human MV4-11 cells at 10 nM incubated for 6 hrs by proteomic analysis; assay type: functional, cell-based
MV4-11 [20] = assay: Downregulation of IRF4 protein in human MV4-11 cells at 10 nM incubated for 6 hrs by proteomic analysis; assay type: functional, cell-based
MV4-11 [21] = assay: Downregulation of CDK5 protein in human MV4-11 cells at 10 nM incubated for 6 hrs by proteomic analysis; assay type: functional, cell-based
MV4-11 [22] = assay: Downregulation of KRAS protein in human MV4-11 cells at 10 nM incubated for 6 hrs by proteomic analysis; assay type: functional, cell-based
MV4-11 [23] = assay: Antitumor activity against human MV4-11 cells xenografted in NOD-SCID mouse assessed as tumor growth inhibition at 2 mg/kg, ip administered every other day for 2 weeks; assay type: functional; conditions: MV4-11, 336 h, read-out: TGI
MV4-11 [24] = assay: Antitumor activity against human MV4-11 cells xenografted in NOD-SCID mouse assessed as tumor growth inhibition at 5 mg/kg, ip administered every other day for 2 weeks; assay type: functional; conditions: MV4-11, 336 h, read-out: TGI
[25] = Toxicity in NOD/SCID mouse xenografted with human MV4-11 cells assessed as body weight loss at 2 to 5 mg/kg, ip administered every other day for 2 weeks; assay type: organism-based; conditions: in vivo, 336 h, dose 2-5 mg/kg
Mus musculus [26] = assay: In vivo induction of CBP degradation in NOD/SCID mouse tumor xenografted with human MV4-11 cells at 2 to 5 mg/kg, ip administered every other day for 2 weeks by immunoblotting analysis; assay type: functional, organism-based; conditions: dose 2-5 mg/kg
Mus musculus [27] = assay: In vivo induction of p300 degradation in NOD/SCID mouse tumor xenografted with human MV4-11 cells at 2 to 5 mg/kg, ip administered every other day for 2 weeks by immunoblotting analysis; assay type: functional, organism-based; conditions: dose 2-5 mg/kg
[28] = Toxicity in NOD/SCID mouse xenografted with human MV4-11 cells assessed as lymphocyte infiltration in liver at 2 to 5 mg/kg, ip administered every other day for 2 weeks by H and E staining based assay; assay type: organism-based; conditions: in vivo, 336 h, dose 2-5 mg/kg
[29] = Toxicity in NOD/SCID mouse xenografted with human MV4-11 cells assessed as aggregation of multinucleated giant cells in spleen at 2 to 5 mg/kg, ip administered every other day for 2 weeks by H and E staining based assay; assay type: organism-based; conditions: in vivo, 336 h, dose 2-5 mg/kg
[30] = Toxicity in NOD/SCID mouse xenografted with human MV4-11 cells assessed as effect on heart at 2 to 5 mg/kg, ip administered every other day for 2 weeks by H and E staining based assay; assay type: organism-based; conditions: in vivo, 336 h, dose 2-5 mg/kg
[31] = Toxicity in NOD/SCID mouse xenografted with human MV4-11 cells assessed as effect on lung at 2 to 5 mg/kg, ip administered every other day for 2 weeks by H and E staining based assay; assay type: organism-based; conditions: in vivo, 336 h, dose 2-5 mg/kg
[32] = Toxicity in NOD/SCID mouse xenografted with human MV4-11 cells assessed as effect on kidney at 2 to 5 mg/kg, ip administered every other day for 2 weeks by H and E staining based assay; assay type: organism-based; conditions: in vivo, 336 h, dose 2-5 mg/kg
MV4-11 [33] = assay: Downregulation of p300 protein level in human MV4-11 cells assessed as fold decrease at 10 nM incubated for 6 hrs by proteomic blotting analysis; assay type: functional, cell-based
[34] = Toxicity in NOD/SCID mouse xenografted with human MV4-11 cells assessed as body weight loss at 5 mg/kg, ip administered every other day for 2 weeks; assay type: organism-based; conditions: in vivo, 336 h
Mus musculus [35] = assay: In vivo induction of CBP degradation in NOD/SCID mouse tumor xenografted with human MV4-11 cells at 5 mg/kg, ip administered every other day for 2 weeks by immunoblotting analysis; assay type: functional, organism-based
[36] = Toxicity in NOD/SCID mouse xenografted with human MV4-11 cells assessed as lymphocyte infiltration in liver at 5 mg/kg, ip administered every other day for 2 weeks by H and E staining based assay; assay type: organism-based; conditions: in vivo, 336 h
[37] = Toxicity in NOD/SCID mouse xenografted with human MV4-11 cells assessed as aggregation of multinucleated giant cells in spleen at 5 mg/kg, ip administered every other day for 2 weeks by H and E staining based assay; assay type: organism-based; conditions: in vivo, 336 h
[38] = Toxicity in NOD/SCID mouse xenografted with human MV4-11 cells assessed as effect on heart at 5 mg/kg, ip administered every other day for 2 weeks by H and E staining based assay; assay type: organism-based; conditions: in vivo, 336 h
[39] = Toxicity in NOD/SCID mouse xenografted with human MV4-11 cells assessed as effect on lung at 5 mg/kg, ip administered every other day for 2 weeks by H and E staining based assay; assay type: organism-based; conditions: in vivo, 336 h
[40] = Toxicity in NOD/SCID mouse xenografted with human MV4-11 cells assessed as effect on kidney at 5 mg/kg, ip administered every other day for 2 weeks by H and E staining based assay; assay type: organism-based; conditions: in vivo, 336 h

**Q.** For `Cc1noc(C)c1-c1ccc2c(c1)nc([C@@H]1CCCC(=O)N1c1ccc(F)c(F)c1)n2C1CCN(CC(=O)Nc2ccc(-c3ccc(CNc4cccc5c4C(=O)N(C4CCC(=O)NC4=O)C5=O)cc3)nc2)CC1` (stereo partly specified), which IC50 (MV4-11 [1]) is on record?
**A.** 1.8 nM

**Q.** What about the IC50 (MOLM-13 [2]) of the same compound?
**A.** 26.9 nM

**Q.** And the IC50 [3]?
**A.** 4.6 nM

**Q.** And the Activity (THP-1)?
**A.** inactive

**Q.** And the Activity (EOL1)?
**A.** inactive

**Q.** What about the Activity (KG-1) of the same compound?
**A.** inactive

**Q.** And the Activity (MV4-11 [4])?
**A.** Active

**Q.** And the Activity (MOLM-16)?
**A.** Active

**Q.** And the Activity (MOLM-13 [5])?
**A.** Active

**Q.** What about the Activity (MV4-11 [6]) of the same compound?
**A.** inactive

**Q.** And the Activity (MV4-11 [7])?
**A.** inactive

**Q.** And the Activity (MV4-11 [8])?
**A.** inactive

**Q.** What about the Activity (MV4-11 [9]) of the same compound?
**A.** inactive

**Q.** And the Activity (MV4-11 [10])?
**A.** inactive

**Q.** What about the Activity (MV4-11 [11]) of the same compound?
**A.** Active

**Q.** What about the Activity (MV4-11 [12]) of the same compound?
**A.** inactive

**Q.** What about the Activity (MV4-11 [13]) of the same compound?
**A.** inactive

**Q.** And the Activity (MV4-11 [14])?
**A.** Active

**Q.** What about the Activity (MV4-11 [15]) of the same compound?
**A.** inactive

**Q.** What about the Activity (MV4-11 [16]) of the same compound?
**A.** inactive

**Q.** What about the Activity (MV4-11 [17]) of the same compound?
**A.** Active

**Q.** What about the Activity (MV4-11 [18]) of the same compound?
**A.** Active

**Q.** And the Activity (MV4-11 [19])?
**A.** Active

**Q.** And the Activity (MV4-11 [20])?
**A.** Active

**Q.** What about the Activity (MV4-11 [21]) of the same compound?
**A.** Active

**Q.** And the Activity (MV4-11 [22])?
**A.** Active

**Q.** And the inhibition in vivo at 2 mg/kg (MV4-11 [23])?
**A.** 53%

**Q.** What about the inhibition in vivo at 5 mg/kg (MV4-11 [24]) of the same compound?
**A.** 88%

**Q.** What about the Activity [25] of the same compound?
**A.** Non-Toxic

**Q.** And the Activity (Mus musculus [26])?
**A.** Active

**Q.** What about the Activity (Mus musculus [27]) of the same compound?
**A.** Active

**Q.** And the Activity [28]?
**A.** Toxic

**Q.** And the Activity [29]?
**A.** Toxic

**Q.** What about the Activity [30] of the same compound?
**A.** Non-Toxic

**Q.** And the Activity [31]?
**A.** Non-Toxic

**Q.** And the Activity [32]?
**A.** Non-Toxic

**Q.** Which results are given for `Cc1noc(C)c1-c1ccc2c(c1)nc([C@@H]1CCCC(=O)N1c1ccc(F)c(F)c1)n2C1CCN(CC(=O)Nc2cnc(-c3ccc(CNc4cccc5c4C(=O)N(C4CCC(=O)NC4=O)C5=O)cc3)nc2)CC1` (stereo partly specified)?
**A.** IC50 (MV4-11 [1]): 0.9 nM; IC50 (MOLM-13 [2]): 47 nM; IC50 [3]: 5.5 nM; Activity (THP-1): inactive; Activity (EOL1): inactive; Activity (KG-1): inactive; Activity (MV4-11 [4]): Active; Activity (MOLM-16): Active; Activity (MOLM-13 [5]): Active; Activity (MV4-11 [33]): inactive; Activity (MV4-11 [6]): inactive; Activity (MV4-11 [7]): inactive; Activity (MV4-11 [8]): inactive; Activity (MV4-11 [9]): inactive; Activity (MV4-11 [10]): inactive; Activity (MV4-11 [11]): Active; Activity (MV4-11 [12]): inactive; Activity (MV4-11 [13]): inactive; Activity (MV4-11 [14]): Active; Activity (MV4-11 [15]): inactive; Activity (MV4-11 [16]): inactive; Activity (MV4-11 [17]): Active; Activity (MV4-11 [18]): Active; Activity (MV4-11 [19]): Active; Activity (MV4-11 [20]): Active; Activity (MV4-11 [21]): Active; Activity (MV4-11 [22]): Active; inhibition in vivo at 5 mg/kg (MV4-11 [24]): 93%; Activity [34]: Non-Toxic; Activity (Mus musculus [35]): Active; Activity [36]: Toxic; Activity [37]: Toxic; Activity [38]: Non-Toxic; Activity [39]: Non-Toxic; Activity [40]: Non-Toxic
